From ChEMBL document CHEMBL3585308, “Discovery and Modification of in Vivo Active Nrf2 Activators with 1,2,4-Oxadiazole Core: Hits Identification and Structure-Activity Relationship Study” (J Med Chem, 2015)
Converted amounts (≈) assume the structure as drawn. The source made the active and inactive calls. No cut-off for these calls is given here.

What was measured:
Mus musculus [1] = assay: Antiinflammatory activity in C57BL/6 mouse assessed as reduction of LPS-induced TNF-alpha level in serum at 10 mg/kg/day pretreated for 48 hrs followed by LPS challenge measured after 5 hrs by ELISA; type: functional, organism-based
Mus musculus [2] = assay: Antiinflammatory activity in C57BL/6 mouse assessed as reduction of LPS-induced IL-17 level in serum at 10 mg/kg/day pretreated for 48 hrs followed by LPS challenge measured after 5 hrs by ELISA; type: functional, organism-based
Mus musculus [3] = assay: Antiinflammatory activity in C57BL/6 mouse assessed as suppression of LPS-induced IL-6 expression in lung at 10 mg/kg/day pretreated for 48 hrs followed by LPS challenge measured after 5 hrs by immunohistochemical analysis; type: functional, organism-based
Mus musculus [4] = assay: Antiinflammatory activity in C57BL/6 mouse assessed as reduction of LPS-induced IL-6 level in serum at 10 mg/kg/day pretreated for 48 hrs followed by LPS challenge measured after 5 hrs by ELISA; type: functional, organism-based
Mus musculus [5] = assay: Antiinflammatory activity in C57BL/6 mouse assessed as prevention of LPS-induced morphological changes in lung at 10 mg/kg/day pretreated for 48 hrs followed by LPS challenge measured after 5 hrs; type: functional, organism-based
Mus musculus [6] = assay: In vivo activation of Nrf2 in LPS-stimulated C57BL/6 mouse lung at 10 mg/kg/day pretreated for 48 hrs followed by LPS challenge measured after 5 hrs by DAPI staining-based laser scanning confocal microscopic analysis; type: functional, organism-based
Mus musculus [7] = assay: Antiinflammatory activity in C57BL/6 mouse assessed as reduction of LPS-induced IFN-gamma level in serum at 10 mg/kg/day pretreated for 48 hrs followed by LPS challenge measured after 5 hrs by ELISA; type: functional, organism-based
Mus musculus [8] = assay: Antiinflammatory activity in C57BL/6 mouse assessed as reduction of LPS-induced IL-12 level in serum at 10 mg/kg/day pretreated for 48 hrs followed by LPS challenge measured after 5 hrs by ELISA; type: functional, organism-based
Mus musculus [9] = assay: Toxicity in C57BL/6 mouse assessed as effect on body weight at 10 mg/kg/day measured after 3 days; type: organism-based; details: in vivo, 72 h
[10] = biological target: T1, Nuclear factor erythroid 2-related factor 2 (Homo sapiens) (UniProt Q16236); assay: Activation of Nrf2 in human HCT116 cells assessed as upregulation of GCLM gene expression at 20 uM after 8 hrs by qRT-PCR analysis in presence of siRNA relative to siRNA nontreated control; type: cell-based; details: HCT-116
T1 sequence (whole entry): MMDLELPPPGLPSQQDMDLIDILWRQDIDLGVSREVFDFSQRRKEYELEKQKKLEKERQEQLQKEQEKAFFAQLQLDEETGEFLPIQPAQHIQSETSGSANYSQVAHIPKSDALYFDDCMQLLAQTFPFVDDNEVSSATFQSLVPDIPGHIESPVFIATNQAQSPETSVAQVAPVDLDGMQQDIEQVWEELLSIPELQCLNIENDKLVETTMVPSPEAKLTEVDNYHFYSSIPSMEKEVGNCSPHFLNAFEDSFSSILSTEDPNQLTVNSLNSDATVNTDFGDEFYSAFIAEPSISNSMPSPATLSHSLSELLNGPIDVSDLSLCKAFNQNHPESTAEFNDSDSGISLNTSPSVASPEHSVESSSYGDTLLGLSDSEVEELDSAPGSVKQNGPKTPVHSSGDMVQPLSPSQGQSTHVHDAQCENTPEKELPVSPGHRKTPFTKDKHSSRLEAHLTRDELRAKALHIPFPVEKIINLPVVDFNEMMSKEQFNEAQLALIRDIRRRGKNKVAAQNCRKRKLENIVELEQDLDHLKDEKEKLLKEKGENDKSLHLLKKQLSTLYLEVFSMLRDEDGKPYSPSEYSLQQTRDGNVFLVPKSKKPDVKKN

[11] = biological target: T1, Nuclear factor erythroid 2-related factor 2 (Homo sapiens); assay: Induction of phosphorylated Nrf2 at S40 translocation from cytoplasm to nucleus in human HCT116 cells at 20 uM after 4 hrs by Western blot analysis; type: cell-based; details: HCT-116
Mus musculus [12] = assay: Antiinflammatory activity in ip dosed C57BL/6 mouse assessed as inhibition of LPS-induced IL-6 expression in lung pretreated for 48 hrs followed by LPS challenge measured after 5 hrs by immunohistochemical analysis; type: functional, organism-based
[13] = Permeability of the compound at pH 7.4 by PAMPA; type: physicochemical; details: read-out: permeability
[14] = biological target: T1, Nuclear factor erythroid 2-related factor 2 (Homo sapiens); assay: Induction of Nrf2 translocation from cytoplasm to nucleus in human HCT116 cells at 20 uM after 4 hrs by Western blot analysis; type: cell-based; details: HCT-116
[15] = biological target: T1, Nuclear factor erythroid 2-related factor 2 (Homo sapiens); assay: Induction of Nrf2 phosphorylation at S40 in cytoplasm of human HCT116 cells at 20 uM after 4 hrs by Western blot analysis; type: cell-based; details: HCT-116
[16] = biological target: T1, Nuclear factor erythroid 2-related factor 2 (Homo sapiens); assay: Activation of Nrf2 in human HepG2-ARE-C8 cells assessed as upregulation of ARE level after 12 hrs by luciferase reporter gene assay; type: cell-based
[17] = biological target: T1, Nuclear factor erythroid 2-related factor 2 (Homo sapiens); assay: Induction of Nrf2 translocation from cytoplasm to nucleus in human HCT116 cells after 12 hrs by DyLight 488 and DAPI staining-based laser scanning confocal microscopic analysis; type: cell-based; details: HCT-116
Mus musculus [18] = assay: Antiinflammatory activity in ip dosed C57BL/6 mouse assessed as reduction of LPS-induced IFN-gamma level in serum pretreated for 48 hrs followed by LPS challenge measured after 5 hrs by ELISA relative to LPS-treated control; type: functional, organism-based
[19] = Intrinsic aqueous solubility of the compound by potentiometric titration method; type: physicochemical; details: read-out: Intrinsic_solubility
Mus musculus [20] = assay: Antiinflammatory activity in ip dosed C57BL/6 mouse assessed as reduction of LPS-induced IL-17 level in serum pretreated for 48 hrs followed by LPS challenge measured after 5 hrs by ELISA relative to LPS-treated control; type: functional, organism-based
[21] = Dissociation constant, pKa of the compound by potentiometric titration method; type: physicochemical
Mus musculus [22] = assay: Toxicity in C57BL/6 mouse assessed as effect on body weight at 10 to 80 mg/kg/day, ip measured after 3 days; type: organism-based; details: in vivo, 72 h
[23] = biological target: T1, Nuclear factor erythroid 2-related factor 2 (Homo sapiens); assay: Activation of Nrf2 in human HCT116 cells assessed as upregulation of HO-1 gene expression measured at 4 hrs by qRT-PCR analysis; type: cell-based; details: HCT-116
Mus musculus [24] = assay: Antiinflammatory activity in ip dosed C57BL/6 mouse assessed as reduction of LPS-induced TNF-alpha level in serum pretreated for 48 hrs followed by LPS challenge measured after 5 hrs by ELISA relative to LPS-treated control; type: functional, organism-based
[25] = biological target: T1, Nuclear factor erythroid 2-related factor 2 (Homo sapiens); assay: Activation of Nrf2 in human HCT116 cells assessed as upregulation of HO-1 expression after 8 hrs by Western blot analysis; type: cell-based; details: HCT-116
[26] = biological target: T1, Nuclear factor erythroid 2-related factor 2 (Homo sapiens); assay: Activation of Nrf2 in human HCT116 cells assessed as upregulation of HO-1 gene expression at 20 uM after 8 hrs by qRT-PCR analysis in presence of siRNA relative to siRNA nontreated control; type: cell-based; details: HCT-116
[27] = biological target: T1, Nuclear factor erythroid 2-related factor 2 (Homo sapiens); assay: Activation of Nrf2 in human HCT116 cells assessed as upregulation of GCLM gene expression measured at 4 hrs by qRT-PCR analysis; type: cell-based; details: HCT-116
[28] = biological target: T1, Nuclear factor erythroid 2-related factor 2 (Homo sapiens); assay: Activation of Nrf2 in human HCT116 cells at 20 uM after 8 hrs by qRT-PCR analysis in presence of siRNA relative to siRNA nontreated control; type: cell-based; details: HCT-116
Mus musculus [29] = assay: In vivo activation of Nrf2 in LPS-stimulated C57BL/6 mouse lung at 10 to 80 mg/kg/day, ip pretreated for 48 hrs followed by LPS challenge measured after 5 hrs by DAPI staining-based laser scanning confocal microscopic analysis; type: functional, organism-based
[30] = biological target: T1, Nuclear factor erythroid 2-related factor 2 (Homo sapiens); assay: Activation of Nrf2 in human HCT116 cells measured at 4 hrs by qRT-PCR analysis; type: cell-based; details: HCT-116
Mus musculus [31] = assay: Antiinflammatory activity in ip dosed C57BL/6 mouse assessed as reduction of LPS-induced IL-12 level in serum pretreated for 48 hrs followed by LPS challenge measured after 5 hrs by ELISA relative to LPS-treated control; type: functional, organism-based
Mus musculus [32] = assay: In vivo activation of Nrf2 in LPS-stimulated ip dosed C57BL/6 mouse lung pretreated for 48 hrs followed by LPS challenge measured after 5 hrs by Western blot analysis; type: functional, organism-based
[33] = biological target: T1, Nuclear factor erythroid 2-related factor 2 (Homo sapiens); assay: Activation of Nrf2 in human HCT116 cells assessed as upregulation of NQO1 expression after 8 hrs by Western blot analysis; type: cell-based; details: HCT-116
Mus musculus [34] = assay: Antiinflammatory activity in C57BL/6 mouse assessed as prevention of LPS-induced morphological changes in lung at 10 to 80 mg/kg/day, ip pretreated for 48 hrs followed by LPS challenge measured after 5 hrs; type: functional, organism-based
[35] = Lipophilicity, log D of the compound at pH 7.4 by potentiometric titration method; type: physicochemical; details: buffer
[36] = biological target: T1, Nuclear factor erythroid 2-related factor 2 (Homo sapiens); assay: Activation of Nrf2 in human HCT116 cells assessed as upregulation of GCS expression at 10 uM after 1 hr by Western blot analysis; type: cell-based; details: HCT-116
[37] = biological target: T1, Nuclear factor erythroid 2-related factor 2 (Homo sapiens); assay: Activation of Nrf2 in human HCT116 cells assessed as upregulation of NQO1 gene expression measured at 4 hrs by qRT-PCR analysis; type: cell-based; details: HCT-116
HCT-116 = assay: Cytotoxicity against human HCT116 cells assessed as reduction of cell proliferation at 80 uM after 24 hrs by MTT assay; type: cell-based; details: hct-116, 24 h
[38] = biological target: T1, Nuclear factor erythroid 2-related factor 2 (Homo sapiens); assay: Activation of Nrf2 in human HCT116 cells assessed as upregulation of NQO1 gene expression at 20 uM after 8 hrs by qRT-PCR analysis in presence of siRNA relative to siRNA nontreated control; type: cell-based; details: HCT-116
Mus musculus [39] = assay: Antiinflammatory activity in ip dosed C57BL/6 mouse assessed as reduction of LPS-induced IL-6 level in serum pretreated for 48 hrs followed by LPS challenge measured after 5 hrs by ELISA relative to LPS-treated control; type: functional, organism-based

C[C@@H]1C[C@H]2[C@@H]3CCC4=CC(=O)C=C[C@]4(C)[C@@]3(F)[C@@H](O)C[C@]2(C)[C@@]1(O)C(=O)CO [DEXAMETHASONE]
Activity (Mus musculus [1]): Active
Activity (Mus musculus [2]): Active
Activity (Mus musculus [3]): Active
Activity (Mus musculus [4]): Active
Activity (Mus musculus [5]): Active
Activity (Mus musculus [6]): Active
Activity (Mus musculus [7]): Active
Activity (Mus musculus [8]): Active
Activity (Mus musculus [9]): Non-toxic

Fc1ccc(-c2nc(-c3ccc4nc[nH]c4c3)no2)cc1
Activity [10]: Active
Activity [11]: Active
inhibition (Mus musculus [12]): Dose-dependent effect
Papp [13]: 19.6 ×10⁻⁶ cm/s
Activity [14]: Active
Activity [15]: Active
Activity [16]: Dose-dependent effect
Activity [17]: Dose-dependent effect
Activity (Mus musculus [18]): Dose-dependent effect
solubility [19]: 66.9 µM (≈ 18.7 µg/mL)
Activity (Mus musculus [20]): Dose-dependent effect
pKa [21]: 3.57
Activity (Mus musculus [22]): Non-toxic
Activity [23]: Dose-dependent effect
Activity (Mus musculus [24]): Dose-dependent effect
Activity [25]: Dose-dependent effect
Activity [26]: Active
Activity [27]: Dose-dependent effect
Activity [28]: Active
Activity (Mus musculus [29]): Active
Activity [30]: Dose-dependent effect
Activity (Mus musculus [31]): Dose-dependent effect
Activity (Mus musculus [32]): Dose-dependent effect
Activity [33]: Dose-dependent effect
Activity (Mus musculus [34]): Active
logD [35]: 3.37
Activity [36]: Active
Activity [37]: Dose-dependent effect
Activity (HCT-116): Non-toxic
Activity [38]: Active
Activity (Mus musculus [39]): Dose-dependent effect
